Experimental data published in patent publication US9695155B2, “Herbicidal substituted pyrimidinyloxy benzene compounds” (E. I. DU PONT DE NEMOURS AND COMPANY, priority 2013, dated 2017).

Tests used:
[1] = system: ragweed; test: Test F preemergence; assay type: in vivo, Ambrosia elatior; settings: 21 days, scale 0 to 100
Excerpt: (§1) Seeds of plant species selected from bermudagrass (Cynodon dactylon), surinam grass (Brachiaria decumbens), large (Lg) crabgrass (Digitaria sanguinalis), crabgrass, naked (naked crabgrass, Digitaria nuda), foxtail, green (green foxtail, Setaria viridis), johnsongrass (Sorghum halepense), kochia (Kochia scoparia), morningglory (pitted morningglory, Ipomoea lacunosa), nutsedge, purple (purple nutsedge, Cyperus rotundus), ragweed (common ragweed, Ambrosia elatior), mustard, black (black mustard, Brassica nigra), guineagrass (Panicum maximum), dallisgrass (Paspalum dilatatum), barnyardgrass (Echinochloa crus-galli), sandbur (southern sandbur, Cenchrus echinatus), sowthistle (common sowthistle, Sonchus oleraceous), Italian ryegrass (Lolium multiflorum), signalgrass (broadleaf signalgrass, Brachiaria platyphylla), dayflower (Virginia (VA) dayflower, Commelina virginica), bluegrass (annual bluegrass, Poa annua), quackgrass (Elytrigia repens), mallow (common mallow, Malva sylvestris), buckwheat, wild (wild buckwheat, Polygonum convolvulus), leafy spurge (Euphorbia esula), chickweed (common chickweed, Stellaria media), wild poinsettia (Euphorbia heterophylla), and pigweed (Amaranthus retroflexus) were planted into a blend of loam soil and sand and treated preemergence with test chemicals formulated in a non-phytotoxic solvent mixture which included a surfactant.
(§2) Treated plants and controls were maintained in a greenhouse for 21 days, after which time all species were compared to controls and visually evaluated. Plant response ratings, summarized in Table F, are based on a scale of 0 to 100 where 0 is no effect and 100 is complete control. A dash (-) response means no test result.

[2] = system: dallisgrass; test: Test F preemergence; assay type: in vivo, Paspalum dilatatum; settings: 21 days, scale 0 to 100
Excerpt: as §1, §2

[3] = system: leafy spurge; test: Test F preemergence; assay type: in vivo, Euphorbia esula; settings: 21 days, scale 0 to 100
Excerpt: as §1, §2

[4] = system: spring barley; test: Test D preemergence; assay type: in vivo, Hordeum vulgare; settings: for plant injury at 16 g/ha / plant injury at 31 g/ha / plant injury at 62 g/ha / plant injury at 125 g/ha: Hordeum vulgare, pre-emergence; for plant injury at 16 g/ha: read-out: Plant response rating, Barley, Spring; for plant injury at 31 g/ha / plant injury at 62 g/ha / plant injury at 125 g/ha: scale 0-100, read-out: Plant response rating, Barley, Spring
Excerpt: (§3) Seeds of plant species selected from bluegrass (annual bluegrass, Poa annua), blackgrass (Alopecurus myosuroides), canarygrass (littleseed canarygrass, Phalaris minor), chickweed (common chickweed, Stellaria media), galium (catchweed bedstraw, Galium aparine), bromegrass, downy (downy bromegrass, Bromus tectorum), field poppy (Papaver rhoeas), field violet (Viola arvensis), green foxtail (Setaria viridis), deadnettle (henbit deadnettle, Lamium amplexicaule), Italian ryegrass (Lolium multiflorum), kochia (Kochia scoparia), lambsquarters (Chenopodium album), oilseed rape (Brassica napus), pigweed (Amaranthus retroflexus), chamomile (scentless chamomile, Matricaria inodora), Russian thistle (Salsola kali), speedwell (bird's-eye speedwell, Veronica persica), spring barley (Hordeum vulgare), spring wheat (Triticum aestivum), wild buckwheat (Polygonum convolvulus), wild mustard (Sinapis arvensis), wild oat (Avena fatua), wild radish (Raphanus raphanistrum), windgrass (Apera spica-venti), winter barley (Hordeum vulgare), and winter wheat (Triticum aestivum) were planted into a silt loam soil and treated preemergence with test chemicals formulated in a non-phytotoxic solvent mixture which included a surfactant.
(§4) At the same time, these species were planted in pots containing Redi-Earth® planting medium (Scotts Company, 14111 Scottslawn Road, Marysville, Ohio 43041) comprising spaghnum peat moss, vermiculite, wetting agent and starter nutrients and treated with postemergence applications of the test chemicals formulated in the same manner. Plants ranged in height from 2 to 18 cm (1- to 4-leaf stage). Treated plants and controls were maintained in a controlled growth environment for 7 to 21 days after which time all species were compared to controls and visually evaluated. Plant response ratings, summarized in Table D, are based on a scale of 0 to 100 where 0 is no effect and 100 is complete control. A dash (-) response means no test result.

[5] = system: winter barley; test: Test D preemergence; assay type: in vivo, Hordeum vulgare; settings: for plant injury at 16 g/ha / plant injury at 31 g/ha / plant injury at 62 g/ha / plant injury at 125 g/ha: Hordeum vulgare, pre-emergence; for plant injury at 16 g/ha: read-out: Plant response rating, Barley, Winter; for plant injury at 31 g/ha / plant injury at 62 g/ha / plant injury at 125 g/ha: scale 0-100, read-out: Plant response rating, Barley, Winter
Excerpt: as §3, §4

[6] = system: windgrass; test: Test D preemergence; assay type: in vivo, Apera spica-venti; settings: for pest or weed control at 16 g/ha / pest or weed control at 31 g/ha: read-out: Plant response rating, Windgrass
Excerpt: as §3, §4

[7] = system: oilseed rape; test: Test D postemergence; assay type: in vivo, Brassica napus; settings: for plant injury at 16 g/ha / plant injury at 31 g/ha / plant injury at 62 g/ha / plant injury at 125 g/ha: Brassica napus, post-emergence; for plant injury at 16 g/ha: scale 0-100, read-out: Plant response rating, Oilseed Rape; for plant injury at 31 g/ha / plant injury at 62 g/ha / plant injury at 125 g/ha: read-out: Plant response rating, Oilseed Rape
Excerpt: as §3, §4

[8] = 16 g ai/ha, scale 0 (no effect) to 100 (complete control)
[9] = Apera spica-venti, pre-emergence, 16 g ai/ha, scale 0 (no effect) to 100 (complete control)
[10] = Apera spica-venti, pre-emergence, 31 g ai/ha, scale 0 (no effect) to 100 (complete control)
[11] = Apera spica-venti, pre-emergence, 125 g ai/ha, scale 0-100, read-out: Plant response rating, Windgrass
[12] = 31 g ai/ha, scale 0 to 100 (0 no effect, 100 complete control)
[13] = 62 g ai/ha, scale 0 to 100 (0 no effect, 100 complete control)
[14] = 125 g ai/ha, scale 0 to 100 (0 no effect, 100 complete control)

Row | Structure (SMILES) | Plant response rating, Ragweed ([1]; 16 g ai/ha) | Plant response rating, Ragweed ([1]; 31 g ai/ha) | Plant response rating, Ragweed ([1]; 62 g ai/ha) | Plant response rating, Ragweed ([1]; 125 g ai/ha) | Plant response rating, Ragweed ([1]; 250 g ai/ha) | Plant response rating, Dallisgrass ([2]; 16 g ai/ha) | Plant response rating, Dallisgrass ([2]; 31 g ai/ha) | Plant response rating, Dallisgrass ([2]; 62 g ai/ha) | Plant response rating, Dallisgrass ([2]; 125 g ai/ha) | Plant response rating, Dallisgrass ([2]; 250 g ai/ha) | Plant response rating, Leafy Spurge ([3]; 16 g ai/ha) | Plant response rating, Leafy Spurge ([3]; 31 g ai/ha) | Plant response rating, Leafy Spurge ([3]; 62 g ai/ha) | Plant response rating, Leafy Spurge ([3]; 125 g ai/ha) | Plant response rating, Leafy Spurge ([3]; 250 g ai/ha) | plant injury at 16 g/ha [4, 8] | plant injury at 31 g/ha ([4]; 31 g ai/ha) | plant injury at 62 g/ha ([4]; 62 g ai/ha) | plant injury at 125 g/ha ([4]; 125 g ai/ha) | plant injury at 16 g/ha [5, 8] | also measured
1 | N#Cc1cccc(Oc2ncc(Cl)cn2)c1-n1cc(OC(F)F)cn1 [Compound 97] | 10 | 75 | 85 | 95 | 100 | 75 | 98 | 100 | 100 | 100 | 98 | 98 | 100 | 100 | 100 | – | – | – | – | – | –
2 | N#Cc1cccc(Oc2ncc(Cl)cn2)c1-n1cc(OCC(F)(F)F)cn1 [Compound 274, 3-[(5-chloro-2-pyrimidinyl)oxy]-2-[4-(2,2,2-trifluoroethoxy)-1H-pyrazol-1-yl]benzonitrile] | 30 | 30 | 30 | 70 | 100 | 95 | 100 | 100 | 100 | 100 | 100 | 98 | 100 | 100 | 100 | 0% | 0% | 10% | 15% | 0% | plant injury at 31 g/ha ([5]; 31 g ai/ha): 0%; plant injury at 62 g/ha ([5]; 62 g ai/ha): 10%; plant injury at 125 g/ha ([5]; 125 g ai/ha): 55%; pest or weed control at 16 g/ha [6, 9]: 20%; pest or weed control at 31 g/ha [6, 10]: 90%; pest or weed control at 125 g/ha [6, 11]: 100%; plant injury at 16 g/ha ([7]; 16 g ai/ha): 40%; plant injury at 31 g/ha [7, 12]: 55%; plant injury at 62 g/ha [7, 13]: 65%; plant injury at 125 g/ha [7, 14]: 75%
3 | Fc1cccc(Oc2ncc(Cl)cn2)c1-n1cc(C(F)F)nn1 [Compound 141, 5-chloro-2-[2-[4-(difluoromethyl)-1H-1,2,3-triazol-1-yl]-3-fluorophenoxy]pyrimidine] | – | – | – | – | – | – | – | – | – | – | – | – | – | – | – | 15% | 20% | 65% | 90% | 15% | plant injury at 31 g/ha ([5]; 31 g ai/ha): 35%; plant injury at 62 g/ha ([5]; 62 g ai/ha): 65%; plant injury at 125 g/ha ([5]; 125 g ai/ha): 90%; pest or weed control at 16 g/ha [6, 9]: 35%; pest or weed control at 31 g/ha [6, 10]: 70%; pest or weed control at 62 g/ha ([6]; Apera spica-venti, pre-emergence, 62 g ai/ha, scale 0-100, read-out: Plant response rating, Windgrass): 85%; pest or weed control at 125 g/ha [6, 11]: 100%; plant injury at 16 g/ha ([7]; 16 g ai/ha): 75%; plant injury at 31 g/ha [7, 12]: 95%; plant injury at 62 g/ha [7, 13]: 100%; plant injury at 125 g/ha [7, 14]: 100%
4 | FCc1cccc(Oc2ncc(Cl)cn2)c1-n1cc(I)cn1 [Compound 245] | – | – | – | – | – | – | – | – | – | – | – | – | – | – | – | – | – | – | – | – | Plant response rating, Barley, Spring [4, 8]: 0; Plant response rating, Barley, Spring ([4]; 31 g ai/ha, scale 0-100): 5; Plant response rating, Barley, Spring ([4]; 62 g ai/ha, scale 0-100): 15; Plant response rating, Barley, Spring ([4]; 125 g ai/ha, scale 0-100): 35; Plant response rating, Barley, Winter [5, 8]: 0; Plant response rating, Barley, Winter ([5]; 31 g ai/ha, scale 0-100): 35; Plant response rating, Barley, Winter ([5]; 62 g ai/ha, scale 0-100): 25; Plant response rating, Barley, Winter ([5]; 125 g ai/ha, scale 0-100): 40; Plant response rating, Windgrass [6, 8]: 5; Plant response rating, Windgrass ([6]; 31 g ai/ha, scale 0 (no effect) to 100 (complete control)): 15; Plant response rating, Windgrass ([6]; 125 g ai/ha, scale 0-100): 60; Plant response rating, Oilseed Rape ([7]; 16 g ai/ha, scale 0-100): 30; Plant response rating, Oilseed Rape [7, 12]: 45; Plant response rating, Oilseed Rape [7, 13]: 60; Plant response rating, Oilseed Rape [7, 14]: 75
